This note sets out measurements from US10125134B2 (Mirati Therapeutics, Inc., priority 2016, dated 2018).

One experiment addresses KRas G12C (Homo sapiens, UniProt P01116, C118S/C51S/C80L/G12C). The experiment is described as follows: KRas G12C Modification Assay (LCMS detection of covalent adduct). In kind it is binding. As to conditions: normalized percent of control; tested at 5 μM concentration for 3 hours. The method, then: A 10 μL aliquot of each protein solution was then transferred to a 384 well microtiter plate. Initial compound stocks were generated at fifty times their desired final assay concentration in DMSO.
Exemplary compounds of Formula (I) were diluted 25-fold into K-Ras Assay Buffer to a final of two times their final concentration. A 10 μL aliquot of each diluted compound solution was then added to each of the protein solutions in the microtiter plate to initiate reaction. […] At each time point, the reactions were quenched with 20 μL of a 25 mM acetic acid solution. […] Once all reactions were quenched, the plates were heat sealed and the samples were injected into a LC/MS system for data acquisition.
Samples were injected in their liquid phase onto a C-3 reverse phase column to remove assay buffer and prepare the samples for mass spectrometer. The proteins were eluted from the column using an acetonitrile gradient and fed directly into the mass analyzer. Initial raw data analysis took place in Agilent MassHunter software immediately post data acquisition.
Raw data analysis of the intact protein was exclusively a deconvolution of the multiple charge states of each protein in solution using a maximum entropy deconvolution provided in Mass Hunter. To minimize complexity, only the data over limited mass ranges were considered for analysis, with a minimum of one Dalton mass step intervals. The heights of all masses identified during raw data analysis were exported to be further analyzed in Spotfire® data analysis software.
Final data analysis was a multistep process in the Spotfire® data analysis software package. Briefly, each protein mass was calculated as a percent of the total signal of that sample, that percentage was then normalized to the percentage of signal of the protein in the absence of reactive compounds. Those normalized signals were reported as normalized percent of control (POC). […] Key: “A”≤25% POC; “B”>25% POC−≤50% POC; “C”>50% POC and ND=not determined.

Experiment [1] has as its system NCI-H358 cells (express KRas G12C), Phospho-ERK. The experiment is described as follows: Cellular inhibition of KRas G12C: Phospho-ERK in NCI-H358 cells. In kind it is cell-based. The method, then: The cellular inhibition of KRAs G12C by exemplary compounds of the present invention was determined by measuring the amount of a downstream marker of KRas activity, phosphorylated ERK (“Phospho-ERK”).
Cells were plated in poly-D-Lysine coated 96-well plates at a concentration of 50,000 cells/well and allowed to attach for 8-12 hours. Diluted compounds were then added at a final concentration of 0.5% DMSO. After 3 hours, the medium was removed, 150 μL of 4% formaldehyde was added and the plates were incubated for 20 minutes. The plates were washed with PBS, and permeabilized using 150 μL of ice cold 100% methanol for 10 minutes. Non-specific antibody binding to the plates was blocked using 100 μL Licor Blocking Buffer (Li-Cor Biotechnology, Lincoln Nebr.) for 1 hour at room temperature. Positive control samples and samples lacking cells were parallel processed with test samples as standards.
The amount Phospho-ERK was determined using an antibody specific for the phosphorylated form of ERK and compared to the amount of GAPDH. […] The plates were incubated for 2 hours at room temperature. The plates were washed with PBS+0.05% Tween 20.
Secondary antibodies used to visualize primary antibodies were added as follows: Anti-rabbit-680 diluted 1:1000 and Anti-mouse-800 diluted 1:1000 in Licor Block+0.05% Tween 20 and incubated for 1 hour at room temperature. The plates were washed with PBS+0.05% Tween 20. A 100 μL aliquot of PBS was added to each well and the plates were read on a LICOR AERIUS plate reader.
The pERK(Thr202/Tyr204) signal was normalized with the GAPDH signal and percent of DMSO control values were calculated. IC50 values were generated using a 4 parameter fit of the dose response curve. Key: “A”≥0.0001−≤1 μM; and “B”>1 μM.

[2] abbreviates: Homo sapiens, NCI-H358, 3 h, pERK(Thr202/Tyr204) normalized with GAPDH, NCI-H358 cells, 3 hours, read-out: IC50.
Setting [3] is: Homo sapiens, pERK(Thr202/Tyr204) normalized with GAPDH, NCI-H358 cells, 3 hours, read-out: IC50.
Where [4] appears, read: pERK(Thr202/Tyr204) normalized with GAPDH, NCI-H358 cells, 3 hours, read-out: IC50.

pIC50: −log10 of the molar value. Where two headings read alike, the source gives them in different places. Where only a bound is given, the exact number is not on record here.

On to `C=CC(=O)N1CCN(c2nc(OC[C@@H]3CCCC(=O)N3)nc3c2CCN(c2cc(O)cc4ccccc24)C3)CC1` (single isomer, unassigned) [Example 61], for which the POC entry at KRas G12C was “C (“C”>50% POC)”. Moreover, the pIC50 in experiment [1] (setting [2]) is below 6.00.

Consider `C=CC(=O)N1CCN(c2nc(OC[C@H]3CCCC(=O)N3)nc3c2CCN(c2cc(O)cc4ccccc24)C3)CC1` (single isomer, unassigned) [Example 62], for which, at KRas G12C, the POC result was “C (“C”>50% POC)”. In addition, the pIC50 in experiment [1] (setting [2]) is below 6.00.

Take `C=CC(=O)N1CCN(c2nc(OC[C@H](O)CN3CCOCC3)nc3c2CCN(c2cc(O)cc4ccccc24)C3)CC1` (single isomer, unassigned) [Example 215]: at KRas G12C, the POC entry is “C (“C”>50% POC)”. The pIC50 in experiment [1] (setting [2]) is below 6.00.

For `C=CC(=O)N1CCN(c2nc(OC[C@@H](O)CN3CCOCC3)nc3c2CCN(c2cc(O)cc4ccccc24)C3)CC1` (single isomer, unassigned) [Example 216], the POC entry on KRas G12C is given as “C (“C”>50% POC)”. The pIC50 in experiment [1] (setting [2]) was below 6.00.

Turning to `C=CC(=O)N1CCN(c2ncnc3c2CCN(c2cc(O)cc4ccccc24)C3)CC1` [Example 1, 1-(4-(7-(3-hydroxynaphthalen-1-yl)-5,6,7,8-tetrahydropyrido[3,4-d]pyrimidin-4-yl)piperazin-1-yl)prop-2-en-1-one], the POC entry on KRas G12C was “B (“B”>25% POC−≤50% POC)”. Also, in experiment [1] (setting [2]), the pIC50 is below 6.00.

As for `C=CC(=O)N1CCN(c2ncnc3c2CCN(c2cccc4ccc(O)cc24)C3)CC1` [Example 2, 1-(4-(7-(7-hydroxynaphthalen-1-yl)-5,6,7,8-tetrahydropyrido[3,4-d]pyrimidin-4-yl)piperazin-1-yl)prop-2-en-1-one], the POC entry at KRas G12C is recorded as “A (“A”≤25% POC)”. Besides, the pIC50 in experiment [1] (setting [2]) was below 6.00.

For the molecule `C=CC(=O)N1CCN(c2ncnc3c2CCN(c2cccc4ccccc24)C3)CC1` [Example 3, 1-(4-(7-(naphthalen-1-yl)-5,6,7,8-tetrahydropyrido[3,4-d]pyrimidin-4-yl)piperazin-1-yl)prop-2-en-1-one], the POC entry at KRas G12C is given as “A (“A”≤25% POC)”. Further, the pIC50 in experiment [1] (setting [2]) was below 6.00.

`C=CC(=O)N1CCN(c2nc(OC[C@@H]3CCCN3C)nc3c2CCN(c2cc(O)cc4ccccc24)C3)CC1` [Example 127, (S)-1-(4-(7-(3-hydroxynaphthalen-1-yl)-2-((1-methylpyrrolidin-2-yl)methoxy)-5,6,7,8-tetrahydropyrido[3,4-d]pyrimidin-4-yl)piperazin-1-yl)prop-2-en-1-one] gave a pIC50 in experiment [1] (Homo sapiens, NCI-H358, 3 h) of 6.00 to 10.00.

In turn, `C=CC(=O)N1CCN(c2nc(OC[C@H]3CCCN3C)nc3c2CCN(c2cc(O)cc4ccccc24)C3)CC1` [Example 187, (R)-1-(4-(7-(3-hydroxynaphthalen-1-yl)-2-((1-methylpyrrolidin-2-yl)methoxy)-5,6,7,8-tetrahydropyrido[3,4-d]pyrimidin-4-yl)piperazin-1-yl)prop-2-en-1-one] showed a pIC50 in experiment [1] (Homo sapiens, NCI-H358, 3 h) of 6.00 to 10.00.

In turn, `C=CC(=O)N1CCN(c2nc(OC[C@@H]3CCCN3C)nc3c2CCN(c2cccc4ccccc24)C3)CC1` [Example 200, (S)-1-(4-(2-((1-methylpyrrolidin-2-yl)methoxy)-7-(naphthalen-1-yl)-5,6,7,8-tetrahydropyrido[3,4-d]pyrimidin-4-yl)piperazin-1-yl)prop-2-en-1-one] gave a pIC50 in experiment [1] (Homo sapiens, NCI-H358, 3 h) below 6.00.

With `CC#CC(=O)N1CCN(c2nc(OC[C@@H]3CCCN3C)nc3c2CCN(c2cccc4ccccc24)C3)CC1CC#N` (stereo partly drawn) [Example 242, 2-(1-(but-2-ynoyl)-4-(2-(((S)-1-methylpyrrolidin-2-yl)methoxy)-7-(naphthalen-1-yl)-5,6,7,8-tetrahydropyrido[3,4-d]pyrimidin-4-yl)piperazin-2-yl)acetonitrile], the pIC50 in experiment [1] (setting [3]) is 6.00 to 10.00.

`C=CC(=O)N1CCN(c2nc(OC[C@]3(C)CCCN3C)nc3c2CCN(c2cccc4ccccc24)C3)CC1CC#N` (stereo partly drawn) [Example 251, 2-(1-acryloyl-4-(2-(((S)-1,2-dimethylpyrrolidin-2-yl)methoxy)-7-(naphthalen-1-yl)-5,6,7,8-tetrahydropyrido[3,4-d]pyrimidin-4-yl)piperazin-2-yl)acetonitrile] gave a pIC50 in experiment [1] (Homo sapiens, NCI-H358, 3 h) of 6.00 to 10.00.

In the case of `C=CC(=O)N1CCN(c2nc(OC[C@@H]3CCCN3C)nc3c2CCN(c2cccc4cccc(Cl)c24)C3)CC1CC#N` (stereo partly drawn) [Example 310, 2-(1-acryloyl-4-(7-(8-chloronaphthalen-1-yl)-2-(((S)-1-methylpyrrolidin-2-yl)methoxy)-5,6,7,8-tetrahydropyrido[3,4-d]pyrimidin-4-yl)piperazin-2-yl)acetonitrile], the pIC50 in experiment [1] (Homo sapiens, NCI-H358, 3 h) was 6.00 to 10.00.

With `C=CC(=O)N1CCN(c2nc(OC[C@@H]3CCCN3C)nc3c2CCN(c2cccc4cccc(Cl)c24)C3)C[C@@H]1CC#N` [Example 331, 2-[(2S)-4-[7-(8-chloro-1-naphthyl)-2-[[(2S)-1-methylpyrrolidin-2-yl]methoxy]-6,8-dihydro-5H-pyrido[3,4-d]pyrimidin-4-yl]-1-prop-2-enoyl-piperazin-2-yl]acetonitrile], in experiment [1] (Homo sapiens, NCI-H358, 3 h), the pIC50 was 6.00 to 10.00.

Regarding `C=CC(=O)N1CCN(c2nc(OC[C@H]3CCCN3C)nc3c2CCN(c2cccc(F)c2C(F)(F)F)C3)C[C@@H]1CC#N` [Example 382, 2-((S)-1-acryloyl-4-(7-(3-fluoro-2-(trifluoromethyl)phenyl)-2-(((R)-1-methylpyrrolidin-2-yl)methoxy)-5,6,7,8-tetrahydropyrido[3,4-d]pyrimidin-4-yl)piperazin-2-yl)acetonitrile], the pIC50 in experiment [1] (setting [4]) was 6.00 to 10.00.

Take `C=CC(=O)N1CCN(c2nc(OC[C@@H]3CCCN3C)nc3c2CCN(c2cccc(C)c2C(F)(F)F)C3)C[C@@H]1CC#N` [Example 392, 2-((S)-1-acryloyl-4-(7-(3-methyl-2-(trifluoromethyl)phenyl)-2-(((S)-1-methylpyrrolidin-2-yl)methoxy)-5,6,7,8-tetrahydropyrido[3,4-d]pyrimidin-4-yl)piperazin-2-yl)acetonitrile]: the pIC50 in experiment [1] (setting [4]) is 6.00 to 10.00.

Consider `C=CC(=O)N1CCN(c2nc(OC[C@H]3CN(C)CCO3)nc3c2CCN(c2cccc4ccccc24)C3)CC1CC#N` (stereo partly drawn) [Example 441, 2-(1-Acryloyl-4-(2-(((R)-4-methylmorpholin-2-yl)methoxy)-7-(naphthalen-1-yl)-5,6,7,8-tetrahydropyrido[3,4-d]pyrimidin-4-yl)piperazin-2-yl)acetonitrile], for which the POC result on KRas G12C is “C (“C”>50% POC)”.

In the case of `C=CC(=O)N1CCN(c2nc(OC[C@H]3CN(C)[C@H](C)CO3)nc3c2CCN(c2cccc4ccccc24)C3)C[C@@H]1CC#N` [Example 449, 2-((S)-1-Acryloyl-4-(2-(((2R,5R)-4,5-dimethylmorpholin-2-yl)methoxy)-7-(naphthalen-1-yl)-5,6,7,8-tetrahydropyrido[3,4-d]pyrimidin-4-yl)piperazin-2-yl)acetonitrile], at KRas G12C, the POC entry is “C (“C”>50% POC)”.

As to `C=CC(=O)N1CCN(c2nc(OC[C@@H]3CCCN3C)nc3c2CCN(c2cccc4cccc(OC)c24)C3)C[C@@H]1CC#N` [Example 463, 2-((S)-1-acryloyl-4-(7-(8-methoxynaphthalen-1-yl)-2-(((S)-1-methylpyrrolidin-2-yl)methoxy)-5,6,7,8-tetrahydropyrido[3,4-d]pyrimidin-4-yl)piperazin-2-yl)acetonitrile], the pIC50 in experiment [1] (setting [3]) is below 6.00.

Take `C=CC(=O)N1CCN(c2nc(OC[C@@H]3CCCN3C)nc3c2CCN(c2cccc4cccc(C#N)c24)C3)C[C@@H]1CC#N` [Example 464, 8-(4-((S)-4-acryloyl-3-(cyanomethyl)piperazin-1-yl)-2-(((S)-1-methylpyrrolidin-2-yl)methoxy)-5,8-dihydropyrido[3,4-d]pyrimidin-7(6H)-yl)-1-naphthonitrile]: the pIC50 in experiment [1] (setting [3]) was 6.00 to 10.00.
